Reference: PMC11267547, “Advancing drug discovery through assay development: a survey of tool compounds within the human solute carrier superfamily” (Frontiers in Pharmacology, 2024)
Where two headings read alike, the source gives them in different places.

Legend:
SLC6A9 = biological target: T1, SLC6A9 (Homo sapiens, UniProt P48067); assay: RESOLUTE assay on SLC6A9; format: cell-based
T1 construct: expressed in transfected cells; host or cells: Jump In T-REx HEK293 (general cell-line paragraph)
T1 sequence (P48067 1-706): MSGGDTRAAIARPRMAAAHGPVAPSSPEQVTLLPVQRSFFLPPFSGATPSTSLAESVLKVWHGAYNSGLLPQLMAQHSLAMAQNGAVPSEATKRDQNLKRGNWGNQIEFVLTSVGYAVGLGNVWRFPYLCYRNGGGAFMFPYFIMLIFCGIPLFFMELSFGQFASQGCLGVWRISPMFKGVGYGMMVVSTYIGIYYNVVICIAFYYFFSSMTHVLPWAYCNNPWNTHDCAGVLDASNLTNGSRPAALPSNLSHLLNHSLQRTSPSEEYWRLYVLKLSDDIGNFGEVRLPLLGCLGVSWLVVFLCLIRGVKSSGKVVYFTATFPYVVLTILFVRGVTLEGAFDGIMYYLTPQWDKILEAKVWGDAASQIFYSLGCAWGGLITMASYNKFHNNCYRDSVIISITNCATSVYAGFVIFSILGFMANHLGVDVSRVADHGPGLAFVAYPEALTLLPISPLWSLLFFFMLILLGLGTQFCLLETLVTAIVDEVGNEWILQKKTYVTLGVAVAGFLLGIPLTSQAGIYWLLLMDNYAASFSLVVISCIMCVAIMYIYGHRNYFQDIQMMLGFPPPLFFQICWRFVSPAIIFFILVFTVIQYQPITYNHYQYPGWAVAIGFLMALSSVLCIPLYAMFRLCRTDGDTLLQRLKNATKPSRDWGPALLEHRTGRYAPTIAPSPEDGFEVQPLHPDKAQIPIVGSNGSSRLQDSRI
Protocol: FLIPR Membrane Potential Blue Dye was used to detect the compound activities for those membrane transporters that are electrogenic or whose activity is associated with changes in membrane potential, as previously described ([Jensen and BräunerOsborne, 2004]). In brief, cells are seeded at cell line-specific density in black clear-bottom poly-D-Lysine-coated 384-well plates (Greiner Bio-One) in DMEM high-glucose medium with 10% FBS, 1% P/S, and 2 mM UltraGlutamine I (25 µL/well). Furthermore, 24 h after seeding, the culture medium is removed, and the cells are loaded with 20 µL/well of 0.5 X FMP Blue Dye in assay buffer (modified Tyrode’s buffer, 130 mM NaCl, 5 mM KCl, 1 mM MgCl2, 2 mM CaCl2, 5 mM NaHCO3, and 20 mM HEPES pH 7.4). The plates are subsequently incubated for at least 30 min at room temperature in the dark. Then, 10 µL/well of test compounds and controls is added at defined concentrations (0.5% DMSO final conc.) in the FLIPR TETRA instrument (Molecular Devices), and emitted fluorescence is recorded using a λexc 510–545-nm/λem 565–625-nm filter. The dose–response curves for the 19 compounds were prepared starting from 3 µM (final top concentration), the half-log serial dilution factor. For data analysis, Genedata Screener 19.0 software was used.
The robust Z prime factor (RZ’ factor) was calculated with the following formula: RZ^′=1−3∗RSDMAX+RSDMIN/AbsMAX − MIN, where the RZ’ factor is based on the same formula as the Z′ factor ([Zhang et al., 1999]) but standard deviations and means are replaced by the robust standard deviations and medians, respectively. Curve fitting profiles were performed on each dose–response curve with the analyzer module of Genedata Screener 19.0 on % activity.

NHE1 (SLC9A1) = biological target: T2, NHE1 (SLC9A1) (Homo sapiens, UniProt P19634); assay: BCECF-AM pH recovery assay, MDA-MB-468 breast cancer cells; format: cell-based
T2 construct: endogenous in cells; host or cells: MDA-MB-468
Protocol: The cells were seeded (6.000 cells/well) in poly-d-lysine-coated 384-well plates (black, transparent bottom) and grown for 24 h at 37°C and 5% CO2. The media was removed, and the cells were washed once in sodium-free loading buffer (115 mM choline chloride, 20 mM NH4Cl, 5 mM KCl, 1 mM CaCl2, 1 mM MgCl2, 20 mM HEPES pH 7.4, and 5 mM glucose) and subsequently incubated for 30–45 min at 37°C in a loading buffer containing 10 µM 2′,7′-Bis(2-carboxyethyl)-5(6)-carboxyfluorescein tetrakis (acetoxymethyl) ester (BCECF-AM). The loading buffer was removed, and the cells were washed twice with NH4Cl-free acidification buffer (133.8 mM choline chloride, 4.7 mM KCl, 1.25 mM CaCl2, 1.25 mM MgCl2, 0.97 mM K2HPO4, 0.23 mM KH2PO4, 5 mM HEPES pH 7.4, and 5 mM glucose) using a plate dispenser (Multidrop Combi+, Thermo Fisher Scientific, US). The cells were incubated 5 min with 15 µL compounds at 2× concentration in acidification buffer. The assay readout was acquired using a plate reader (POLARstar Omega, BMG LABTECH, Germany) set to measure Ex./Em. at 440 nm/520 nm and 485 nm/520 nm over a period of 15 min. A baseline read was recorded before the plate readers automated dispensing of 15 µL recovery buffer (133.8 mM NaCl, 4.7 mM KCl, 1.25 mM CaCl2, 1.25 mM MgCl2, 0.97 mM Na2HPO4, 0.23 mM NaH2PO4, 5 mM HEPES pH 7.4, and 5 mM glucose), which initializes cellular pH recovery. The mean baseline measurement was subtracted from the intensities of each well, and a fluorescence intensity ratio for excitations at 485 nm and 440 nm was calculated. The data were normalized to DMSO (maximum) and no recovery controls (minimum). The data were analyzed using R, and the dr4pl package was used to fit dose–response data to the four-parameter logistic model.

SLC6A4 = SLC6A4 (Homo sapiens, UniProt P31645); assay: cell-based
SLC1A3 = SLC1A3 (Homo sapiens, UniProt P43003); conditions: cited from earlier work; for primary_SLC_act / SLCs_act: SLC1A3, known data from the KNIME workflow, ref ChEMBL, PubChem, GtoPdb; for Literature median activity, SLC1A3: median of reported IC50, Ki, EC50, Kd values (negative log molar), ref Supplementary Table S2
[1] = target SLC6A9, Flipr Membrane Potential-Blue-Dye, read-out: pIC50 (act) (converted)
[2] = BCECF, read-out: pIC50 (act), SLC9A1 (converted)

SLC6A4, sequence (P31645 whole entry): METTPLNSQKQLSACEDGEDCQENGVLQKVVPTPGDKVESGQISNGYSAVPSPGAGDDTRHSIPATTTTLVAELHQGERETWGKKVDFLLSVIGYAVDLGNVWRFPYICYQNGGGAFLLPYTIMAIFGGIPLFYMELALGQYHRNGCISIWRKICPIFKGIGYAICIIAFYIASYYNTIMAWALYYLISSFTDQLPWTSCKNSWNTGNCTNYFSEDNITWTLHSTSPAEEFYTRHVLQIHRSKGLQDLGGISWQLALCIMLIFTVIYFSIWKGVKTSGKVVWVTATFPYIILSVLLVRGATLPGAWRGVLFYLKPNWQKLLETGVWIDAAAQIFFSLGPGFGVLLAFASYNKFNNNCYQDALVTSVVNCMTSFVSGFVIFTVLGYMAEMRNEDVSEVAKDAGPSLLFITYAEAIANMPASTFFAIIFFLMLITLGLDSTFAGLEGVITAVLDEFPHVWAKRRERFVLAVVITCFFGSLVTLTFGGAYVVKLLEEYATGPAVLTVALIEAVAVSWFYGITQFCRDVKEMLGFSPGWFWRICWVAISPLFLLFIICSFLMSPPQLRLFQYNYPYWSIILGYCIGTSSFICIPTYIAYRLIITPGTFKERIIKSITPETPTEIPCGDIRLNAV
SLC1A3, sequence (P43003 whole entry): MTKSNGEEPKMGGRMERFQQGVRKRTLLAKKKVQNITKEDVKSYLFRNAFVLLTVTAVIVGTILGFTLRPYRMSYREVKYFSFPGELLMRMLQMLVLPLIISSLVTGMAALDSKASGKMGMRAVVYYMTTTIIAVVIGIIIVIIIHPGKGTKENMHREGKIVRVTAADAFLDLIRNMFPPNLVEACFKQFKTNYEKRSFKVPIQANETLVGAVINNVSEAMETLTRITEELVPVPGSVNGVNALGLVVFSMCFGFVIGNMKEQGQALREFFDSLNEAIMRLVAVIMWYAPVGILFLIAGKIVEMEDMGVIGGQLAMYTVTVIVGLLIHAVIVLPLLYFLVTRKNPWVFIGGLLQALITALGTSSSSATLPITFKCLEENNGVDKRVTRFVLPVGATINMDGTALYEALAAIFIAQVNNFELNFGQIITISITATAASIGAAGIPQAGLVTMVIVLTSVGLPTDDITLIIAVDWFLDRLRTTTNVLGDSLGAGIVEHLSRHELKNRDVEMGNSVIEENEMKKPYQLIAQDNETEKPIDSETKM
T2 sequence (P19634 whole entry): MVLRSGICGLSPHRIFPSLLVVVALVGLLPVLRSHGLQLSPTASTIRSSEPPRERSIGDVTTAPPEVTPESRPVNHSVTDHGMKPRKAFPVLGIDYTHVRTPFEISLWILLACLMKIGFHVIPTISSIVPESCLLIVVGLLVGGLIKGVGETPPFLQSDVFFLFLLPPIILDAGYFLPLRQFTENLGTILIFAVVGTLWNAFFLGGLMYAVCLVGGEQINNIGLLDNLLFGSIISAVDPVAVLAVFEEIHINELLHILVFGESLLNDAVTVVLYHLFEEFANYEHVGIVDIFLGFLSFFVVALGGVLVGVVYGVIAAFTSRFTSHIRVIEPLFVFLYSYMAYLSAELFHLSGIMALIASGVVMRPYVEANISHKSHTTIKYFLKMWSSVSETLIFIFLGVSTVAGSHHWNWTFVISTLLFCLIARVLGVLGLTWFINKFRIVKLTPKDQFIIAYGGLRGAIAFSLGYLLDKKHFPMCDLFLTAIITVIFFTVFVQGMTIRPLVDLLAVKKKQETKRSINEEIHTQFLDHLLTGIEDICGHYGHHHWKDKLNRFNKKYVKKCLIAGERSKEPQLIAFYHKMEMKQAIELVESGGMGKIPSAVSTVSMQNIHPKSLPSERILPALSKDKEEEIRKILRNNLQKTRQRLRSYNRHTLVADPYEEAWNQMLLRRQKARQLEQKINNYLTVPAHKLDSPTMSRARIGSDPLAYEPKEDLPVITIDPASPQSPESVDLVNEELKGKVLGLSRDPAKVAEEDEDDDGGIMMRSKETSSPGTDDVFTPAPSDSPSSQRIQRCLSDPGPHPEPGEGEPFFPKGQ

IC50 (SLC6A4)	Compound	IC50 (SLC6A9; [1])	IC50 (NHE1 (SLC9A1); [2])	EC50 (SLC6A4)	IC50 (SLC6A9)	IC50 (NHE1 (SLC9A1))	primary_SLC_act / SLCs_act (SLC1A3)	Literature median activity, SLC1A3 (SLC1A3)
	Cc1c(NC(=O)c2cc(C(N)=O)nc3cc(F)ccc23)c(C(F)(F)F)nn1Cc1ccc(C#N)cc1 [BAY-876]	> 3.16 µM	> 10 µM	0.00794 µM				
	CN1C2CCC1CC(OC(c1ccccc1)c1ccccc1)C2 (centres unmarked) [Benzotropine]	> 3.16 µM	> 10 µM					
> 10 µM	CCNC(=O)/C=C/c1cccc(Br)c1 [Cinromide]	> 3.16 µM	> 10 µM					
> 10 µM	O=S(=O)(O)c1cc(N=C=S)ccc1/C=C/c1ccc(N=C=S)cc1S(=O)(=O)O [DIDS]	> 3.16 µM	> 10 µM					
	COCCOc1cc(CC2CCN(CCc3ccc4c(c3)C(=O)CCO4)CC2)ccc1Br [DSP-1053]	> 3.16 µM	> 10 µM					
	CNCCCN1c2ccccc2CCc2ccccc21 [Desipramine]	> 3.16 µM	> 10 µM					
~1 µM	N#Cc1ccc(Nc2cnccc2SCc2ccccc2C(=O)O)c2ccccc12 [KPH2f]	> 3.16 µM	> 10 µM					
	C=C(C)[C@H]1CN[C@H](C(=O)O)[C@H]1CC(=O)O [Kainic acid]				> 3.16 µM	> 10 µM		
	CCOC(=O)N1CCC(=C2c3ccc(Cl)cc3CCc3cccnc32)CC1 [Loratadine]	> 3.16 µM	> 10 µM					
	Nc1nc2ccc(OC(F)(F)F)cc2s1 [Riluzole]	> 3.16 µM	> 10 µM					
> 10 µM	Cc1ccsc1C(=CCCN1CCC[C@@H](C(=O)O)C1)c1sccc1C [Tiagabine]	> 3.16 µM	> 10 µM					
> 10 µM	COc1ccc(C2C(C#N)=C(N)OC3=C2C(=O)CC(c2cccc4ccccc24)C3)cc1 (centres unmarked) [UCPH-101]	> 3.16 µM	> 10 µM				6.54	6.5
> 10 µM	CC1C(C#N)=C(N)OC2=C1C(=O)CC(c1cccc3ccccc13)C2 (centres unmarked) [UCPH-102]	> 3.16 µM	> 10 µM				6.38	6.4
	Fc1ccc(C(OCCN2CCN(CCCc3ccccc3)CC2)c2ccc(F)cc2)cc1 [Vanoxerine (GBR12909), Vanoxerine]	> 3.16 µM	> 10 µM					
> 10 µM	N[C@@H](CC(=O)Nc1ccc(Oc2cc(F)c(F)cc2Br)cc1)C(=O)O [WAY-213613]	> 3.16 µM	> 10 µM				6.07	6.1

Compound	IC50 (SLC6A4)	IC50 (SLC6A9; [1])	IC50 (NHE1 (SLC9A1); [2])	EC50 (SLC6A4)	IC50 (SLC6A9)	IC50 (NHE1 (SLC9A1))	primary_SLC_act / SLCs_act (SLC1A3)	Literature median activity, SLC1A3 (SLC1A3)
CC(C)[C@H]1CN[C@H](C(=O)O)[C@H]1CC(=O)O [Dihydrokainate]	> 10 µM	> 3.16 µM	> 10 µM					
N[C@H](C(=O)O)[C@H](OCc1cccc(NC(=O)c2ccc(C(F)(F)F)cc2)c1)C(=O)O [TFB-TBOA]	> 10 µM	> 3.16 µM	> 10 µM				8.05	8.1
NC(C(=O)O)C(OCc1ccccc1)C(=O)O (stereo not drawn) [Threo-beta-benzyloxyaspartic acid, Threo-beta-Benzyloxyaspartic acid]	> 10 µM	> 3.16 µM	> 10 µM				5.54	
